target: N-terminally GST-tagged HCK (75-526) (Homo sapiens (Human), UniProt P08631); assay: HCK Kinase Assay (ProFluor Src-Family Kinase Assay); type: biochemical; conditions: HCK inhibitory activity, 50 μM ATP; read-out: HCK Activity
Experimental: The procedure of ProFluor Src-Family Kinase Assay (Promega, Cat. No. V1271) was then followed. To the reaction was added 5 μL Protease solution and the mixture was incubated for 60 minutes at room temperature (22-25° C.), followed by 5 μL Stabilizer solution. The fluorescence signal was read on an Envision multilabel plate reader (Perkin Elmer). The R110 was then read at an excitation wavelength of 485 nm and an emission wavelength of 530 nm. The AMC signal was read at an excitation wavelength of 355 nm and an emission wavelength of 460 nm.

N-terminally GST-tagged HCK (75-526), sequence (P08631 75-526): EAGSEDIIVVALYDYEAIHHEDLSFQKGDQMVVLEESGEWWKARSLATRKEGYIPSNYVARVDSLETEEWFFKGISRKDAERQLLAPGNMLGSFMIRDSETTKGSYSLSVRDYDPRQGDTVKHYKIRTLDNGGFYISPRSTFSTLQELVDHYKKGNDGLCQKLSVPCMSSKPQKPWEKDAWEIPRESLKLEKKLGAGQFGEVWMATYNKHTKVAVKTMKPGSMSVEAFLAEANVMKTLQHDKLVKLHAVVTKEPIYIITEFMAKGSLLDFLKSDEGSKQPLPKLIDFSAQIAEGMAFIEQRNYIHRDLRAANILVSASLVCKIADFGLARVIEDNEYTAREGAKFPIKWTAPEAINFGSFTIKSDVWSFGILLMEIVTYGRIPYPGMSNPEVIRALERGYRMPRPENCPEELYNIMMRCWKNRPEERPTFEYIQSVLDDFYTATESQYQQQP

CC[C@H]1CN([C@H]2CC[C@H](n3cc(-c4ccc(Oc5ccccc5)cc4)c4c(N)ncnc43)CC2)CCN1 [Example 29, 7-((trans)-4-((S)-3-ethylpiperazin-1-yl)cyclohexyl)-5-(4-phenoxyphenyl)-7H-pyrrolo[2,3-d]pyrimidin-4-amine] and CC[C@H]1CN([C@H]2CC[C@@H](n3cc(-c4ccc(Oc5ccccc5)cc4)c4c(N)ncnc43)CC2)CCN1 [Example 30, 7-((cis)-4-((S)-3-ethylpiperazin-1-yl)cyclohexyl)-5-(4-phenoxyphenyl)-7H-pyrrolo[2,3-d]pyrimidin-4-amine] fall in the same range of IC50: 0.05 to 0.25 µM for the first, 0.05 to 0.25 µM for the second.

Compared with CC[C@H]1CN([C@H]2CC[C@H](n3nc(-c4ccc(Oc5ccccc5)cc4F)c4c(N)ncnc43)CC2)CCN1 [Example 31, 1-((trans)-4-((S)-3-ethylpiperazin-1-yl)cyclohexyl)-3-(2-fluoro-4-phenoxyphenyl)-1H-pyrazolo[3,4-d]pyrimidin-4-amine], CC[C@H]1CN([C@H]2CC[C@@H](n3nc(-c4ccc(Oc5ccccc5)cc4F)c4c(N)ncnc43)CC2)CCN1 [Example 32, 1-((cis)-4-((S)-3-ethylpiperazin-1-yl)cyclohexyl)-3-(2-fluoro-4-phenoxyphenyl)-1H-pyrazolo[3,4-d]pyrimidin-4-amine] is higher in IC50: less than 0.05 µM for the first, 0.05 to 0.25 µM for the second. The first is the more potent here.

CN1CCN([C@H]2CC[C@H](n3cc(-c4ccc(Oc5ccccc5)cc4)c4c(N)ncnc43)CC2)CC1CO (stereo partly drawn) [Example 33, (4-((trans)-4-(4-amino-5-(4-phenoxyphenyl)-7H-pyrrolo[2,3-d]pyrimidin-7-yl)cyclohexyl)-1-methylpiperazin-2-yl)methanol] and CN1CCN([C@H]2CC[C@H](n3cc(-c4ccc(Oc5ccccc5)cc4)c4c(N)ncnc43)CC2)CC1C(=O)O (stereo partly drawn) [Example 34, 4-((trans)-4-(4-amino-5-(4-phenoxyphenyl)-7H-pyrrolo[2,3-d]pyrimidin-7-yl)cyclohexyl)-1-methylpiperazine-2-carboxylic acid] cannot be ordered by IC50: less than 0.05 µM for the first, less than 0.05 µM for the second.

First: Nc1ncnc2c1c(-c1ccc(Oc3ccccc3)cc1)cn2[C@H]1CC[C@H](N2CCNC3(CC3)C2)CC1 [Example 35, 7-((trans)-4-(4,7-diazaspiro[2.5]octan-7-yl)cyclohexyl)-5-(4-phenoxyphenyl)-7H-pyrrolo[2,3-d]pyrimidin-4-amine]
Second: Nc1ncnc2c1c(-c1ccc(Oc3ccccc3)cc1)cn2[C@H]1CC[C@@H](N2CCNC3(CC3)C2)CC1 [Example 36, 7-((cis)-4-(4,7-diazaspiro[2.5]octan-7-yl)cyclohexyl)-5-(4-phenoxyphenyl)-7H-pyrrolo[2,3-d]pyrimidin-4-amine]
The IC50 of the first is lower: less than 0.05 µM for the first, 0.05 to 0.25 µM for the second. The first is the more potent here.

Nc1ncnc2c1c(-c1ccc(Oc3ccccc3)cc1)cn2C1CCC(N2CC3CCC2CN3)CC1 (stereo not drawn) [Example 37, 7-(4-(2,5-diazabicyclo[2.2.2]octan-2-yl)cyclohexyl)-5-(4-phenoxyphenyl)-7H-pyrrolo[2,3-d]pyrimidin-4-amine] and Nc1ncnc2c1c(-c1ccc(Oc3ccccc3)cc1)cn2[C@H]1CC[C@H](N2CCC(N)CC2)CC1 [Example 52, 7-((trans)-4-(4-aminopiperidin-1-yl)cyclohexyl)-5-(4-phenoxyphenyl)-7H-pyrrolo[2,3-d]pyrimidin-4-amine] cannot be ordered by IC50: less than 0.05 µM for the first, less than 0.05 µM for the second.

Nc1ncnc2c1c(-c1ccc(Oc3ccccc3)cc1)cn2[C@H]1CC[C@H](N2CCN(N)CC2)CC1 [Example 38, 7-((trans)-4-(4-aminopiperazin-1-yl)cyclohexyl)-5-(4-phenoxyphenyl)-7H-pyrrolo[2,3-d]pyrimidin-4-amine] and Nc1ncnc2c1c(-c1ccc(Oc3ccccc3)cc1)cn2[C@H]1CC[C@@H](N2CCN(N)CC2)CC1 [Example 39, 7-((cis)-4-(4-aminopiperazin-1-yl)cyclohexyl)-5-(4-phenoxyphenyl)-7H-pyrrolo[2,3-d]pyrimidin-4-amine] cannot be ordered by IC50: less than 0.05 µM for the first, less than 0.05 µM for the second.

CC(=O)NN1CCN([C@H]2CC[C@H](n3cc(-c4ccc(Oc5ccccc5)cc4)c4c(N)ncnc43)CC2)CC1 [Example 40, N-(4-((trans)-4-(4-amino-5-(4-phenoxyphenyl)-7H-pyrrolo[2,3-d]pyrimidin-7-yl)cyclohexyl)piperazin-1-yl)acetamide] and CC(=O)NN1CCN([C@H]2CC[C@@H](n3cc(-c4ccc(Oc5ccccc5)cc4)c4c(N)ncnc43)CC2)CC1 [Example 41, N-(4-((cis)-4-(4-amino-5-(4-phenoxyphenyl)-7H-pyrrolo[2,3-d]pyrimidin-7-yl)cyclohexyl)piperazin-1-yl)acetamide] cannot be ordered by IC50: less than 0.05 µM for the first, less than 0.05 µM for the second.

Compared with Nc1ncnc2c1c(-c1ccc(Oc3ccccc3)cc1)cn2[C@H]1CC[C@H](N2CCN3C(=O)CCC3C2)CC1 (stereo partly drawn) [Example 42, 2-((trans)-4-(4-amino-5-(4-phenoxyphenyl)-7H-pyrrolo[2,3-d]pyrimidin-7-yl)cyclohexyl)hexahydropyrrolo[1,2-a]pyrazin-6(2H)-one], Nc1ncnc2c1c(-c1ccc(Oc3ccccc3)cc1)cn2[C@H]1CC[C@@H](N2CCN3C(=O)CCC3C2)CC1 (stereo partly drawn) [Example 43, 2-((cis)-4-(4-amino-5-(4-phenoxyphenyl)-7H-pyrrolo[2,3-d]pyrimidin-7-yl)cyclohexyl)hexahydropyrrolo[1,2-a]pyrazin-6(2H)-one] is lower in IC50: 0.05 to 0.25 µM for the first, less than 0.05 µM for the second. The second is the more potent here.

First: Nc1ncnc2c1c(-c1ccc(Oc3ccccc3)cc1)cn2[C@H]1CC[C@H](N2CCN3CCCC3C2)CC1 (stereo partly drawn) [Example 44, 7-((trans)-4-(hexahydropyrrolo[1,2-a]pyrazin-2(1H)-yl)cyclohexyl)-5-(4-phenoxyphenyl)-7H-pyrrolo[2,3-d]pyrimidin-4-amine]
Second: Nc1ncnc2c1c(-c1ccc(Oc3ccccc3)cc1)cn2[C@H]1CC[C@@H](N2CCN3CCCC3C2)CC1 (stereo partly drawn) [Example 45, 7-((cis)-4-(hexahydropyrrolo[1,2-a]pyrazin-2(1H)-yl)cyclohexyl)-5-(4-phenoxyphenyl)-7H-pyrrolo[2,3-d]pyrimidin-4-amine]
The IC50 of the first is lower: less than 0.05 µM for the first, 0.25 to 10 µM for the second. The first is the more potent here.

First: Nc1ncnc2c1c(-c1ccc(Oc3ccccc3)cc1)cn2[C@H]1CC[C@H](N2CCN3CCC[C@H]3C2)CC1 [Example 46, 7-((trans)-4-((S)-hexahydropyrrolo[1,2-a]pyrazin-2(1H)-yl)cyclohexyl)-5-(4-phenoxyphenyl)-7H-pyrrolo[2,3-d]pyrimidin-4-amine]
Second: Nc1ncnc2c1c(-c1ccc(Oc3ccccc3)cc1)cn2[C@H]1CC[C@@H](N2CCN3CCC[C@H]3C2)CC1 [Example 47, 7-((cis)-4-((S)-hexahydropyrrolo[1,2-a]pyrazin-2(1H)-yl)cyclohexyl)-5-(4-phenoxyphenyl)-7H-pyrrolo[2,3-d]pyrimidin-4-amine]
The IC50 of the first is lower: less than 0.05 µM for the first, 0.05 to 0.25 µM for the second. The first is the more potent here.

Nc1ncnc2c1c(-c1ccc(Oc3ccccc3)cc1)cn2[C@H]1CC[C@H](N2CCN3CCC[C@@H]3C2)CC1 [Example 48, 7-((trans)-4-((R)-hexahydropyrrolo[1,2-a]pyrazin-2(1H)-yl)cyclohexyl)-5-(4-phenoxyphenyl)-7H-pyrrolo[2,3-d]pyrimidin-4-amine] and Nc1ncnc2c1c(-c1ccc(Oc3ccccc3)cc1)cn2[C@H]1CC[C@@H](N2CCN3CCC[C@@H]3C2)CC1 [Example 49, 7-((cis)-4-((R)-hexahydropyrrolo[1,2-a]pyrazin-2(1H)-yl)cyclohexyl)-5-(4-phenoxyphenyl)-7H-pyrrolo[2,3-d]pyrimidin-4-amine] cannot be ordered by IC50: less than 0.05 µM for the first, less than 0.05 µM for the second.

First: CC1(N)CCN([C@H]2CC[C@H](n3cc(-c4ccc(Oc5ccccc5)cc4)c4c(N)ncnc43)CC2)CC1 [Example 50, 7-((trans)-4-(4-amino-4-methylpiperidin-1-yl)cyclohexyl)-5-(4-phenoxyphenyl)-7H-pyrrolo[2,3-d]pyrimidin-4-amine]
Second: CC1(N)CCN([C@H]2CC[C@@H](n3cc(-c4ccc(Oc5ccccc5)cc4)c4c(N)ncnc43)CC2)CC1 [Example 51, 7-((cis)-4-(4-amino-4-methylpiperidin-1-yl)cyclohexyl)-5-(4-phenoxyphenyl)-7H pyrrolo[2,3-d]pyrimidin-4-amine]
The IC50 of the first is higher: 0.05 to 0.25 µM for the first, less than 0.05 µM for the second.

Compared with Nc1ncnc2c1c(-c1ccc(Oc3ccccc3)cc1)cn2[C@H]1CC[C@@H](N2CCC(N)CC2)CC1 [Example 53, 7-((cis)-4-(4-aminopiperidin-1-yl)cyclohexyl)-5-(4-phenoxyphenyl)-7H-pyrrolo[2,3-d]pyrimidin-4-amine], Nc1ncnc2c1c(-c1ccc(Oc3ccccc3)cc1)cn2[C@H]1CC[C@H](N2CCCC(N)C2)CC1 (stereo partly drawn) [Example 54, 7-((trans)-4-(3-aminopiperidin-1-yl)cyclohexyl)-5-(4-phenoxyphenyl)-7H-pyrrolo[2,3-d]pyrimidin-4-amine] is lower in IC50: 0.05 to 0.25 µM for the first, less than 0.05 µM for the second. The second is the more potent here.

Nc1ncnc2c1c(-c1ccc(Oc3ccccc3)cc1)cn2[C@H]1CC[C@@H](N2CCCC(N)C2)CC1 (stereo partly drawn) [Example 55, 7-((cis)-4-(3-aminopiperidin-1-yl)cyclohexyl)-5-(4-phenoxyphenyl)-7H-pyrrolo[2,3-d]pyrimidin-4-amine] and Nc1ncnc2c1c(-c1ccc(Oc3ccccc3)cc1)cn2[C@H]1CC[C@H](N2CCC[C@H](N)C2)CC1 [Example 56, 7-((trans)-4-((S)-3-aminopiperidin-1-yl)cyclohexyl)-5-(4-phenoxyphenyl)-7H-pyrrolo[2,3-d]pyrimidin-4-amine] cannot be ordered by IC50: less than 0.05 µM for the first, less than 0.05 µM for the second.

First: Nc1ncnc2c1c(-c1ccc(Oc3ccccc3)cc1)cn2[C@H]1CC[C@@H](N2CCC[C@H](N)C2)CC1 [Example 57, 7-((cis)-4-((S)-3-aminopiperidin-1-yl)cyclohexyl)-5-(4-phenoxyphenyl)-7H-pyrrolo[2,3-d]pyrimidin-4-amine]
Second: Nc1ncnc2c1c(-c1ccc(Oc3ccccc3)cc1)cn2[C@H]1CC[C@@H](N2CCC[C@@H](N)C2)CC1 [Example 58, 7-((cis)-4-((R)-3-aminopiperidin-1-yl)cyclohexyl)-5-(4-phenoxyphenyl)-7H-pyrrolo[2,3-d]pyrimidin-4-amine]
The IC50 of the first is lower: less than 0.05 µM for the first, 0.05 to 0.25 µM for the second.

Source: US11963960B2 (Flash Therapeutics, LLC, priority 2020, dated 2024)
